Values joined by “and” are separate entries in the source; they are usually repeats but may differ in a detail not shown here. Equal entries are not always repeated.
Tests used:
[1] = tested on: Mus musculus; settings: oral
[2] = tested on: Bird; settings: reproductive, in ovo, M/F, White leghorn chicken, generation: F1
[3] = tested on: Labeo boga; settings: whole body, M/F
[4] = tested on: Monkey; settings: oral, capsule, Cynomolgus; for NOEL: short-term, duration: 29 days, blood: basophils + blood: eosinophils + blood: lymphocytes + blood: monocytes + blood: reticulocytes + blood: segmented neutrophils + blood…
[5] = tested on: Rattus norvegicus; settings: oral
[6] = developmental, duration: 17 days, gavage, F, CD1, Developmental: Delayed postnatal development [eye opening, preputial separation and vaginal opening] and decreased body weight gain …
[7] = developmental, duration: 18 days, gavage, F, Developmental: Decreased number of live births (36 and 31%) and pup survival at 1.1 and 2.0 mg/kg/day, but not […] / decreased number of …
[8] = short-term, duration: 14 days, gavage, M, BALB/c, Body Weight: ~25% decrease in body weight + Hepatic: Increases in liver weight (~160%) and increases in hepatic triglyceride (~66%) and …
[9] = subchronic, duration: 90 days, gavage, M, Reproductive: Decreased sperm motility, viability, and number / degenerative changes in seminiferous tubules / decreased litter size
[10] = developmental, duration: 17 days, F, Developmental: Decrease in number of successful birthsbirths
[11] = short-term, duration: 3 weeks, M, BALB/c, Immunotoxicological: ~36% decrease in spleen index during recovery / ~15% inhibition in Con Ainduced T-cell proliferation during treatment…
[12] = short-term, duration: 21 days, F, B6C3F1, Immunotoxicological: Decreased host resistance to influenza virus
[13] = subchronic, duration: 3 months, M/F, C57BL/6, Neurological: Impaired spatial learning and memory
[14] = subchronic, duration: 5 weeks, M, Body Weight: 17% decrease in body weight + Reproductive: Decreases in sperm concentration, serum testosterone levels / vacuolation in …
[15] = chronic, duration: 26 weeks, M, lymphocyte count (%) (Day 182)
[16] = chronic, duration: 14 weeks, diet, M, Crl:CD(SD) BR, non-segmented neutrophils (N-SEG)
[17] = reproduction developmental, gavage, M/F, Sprague-Dawley, generation: F1, F1: IL-1beta mRNA level relative change: cortex (PND 0) + F1: IL-1beta mRNA level relative change: cortex (PND 21) + F1: IL-1beta mRNA level…
[18] = reproduction developmental, gavage, M/F, Sprague-Dawley, generation: F1, F1: TNFalpha mRNA level relative change: cortex (PND 0) + F1: TNFalpha mRNA level relative change: cortex (PND 21)
[19] = short-term, duration: 28 days, diet, F, Sprague-Dawley, spleen: spleen: relative weight + thymus: apoptotic cells in the thymic cortex + thymus: thymus: absolute weight + Total serum IgM level
[20] = short-term, duration: 28 days, diet, M, Sprague-Dawley, spleen: spleen: absolute weight + thymus: thymus: absolute weight
[21] = short-term, duration: 28 days, diet, M, Sprague-Dawley, thymus: apoptotic cells in the thymic cortex + thymus: apoptotic cells in the thymic medulla

Structure (SMILES): O=C(O)C(F)(F)C(F)(F)C(F)(F)C(F)(F)C(F)(F)C(F)(F)C(F)(F)C(F)(F)F [Perfluorononanoic acid]
- NOAEL ([1]; developmental, duration: 16 days, gavage, M/F, CD1, developmental): 1 mg/kg-day
- LOAEL [1, 6]: 3 mg/kg-day and 5 mg/kg-day
- NOAEL [1, 6]: 1 mg/kg-day
- NOAEL ([1]; developmental, duration: 18 days, gavage, F, Body Weight: No alterations in maternal body weight or gestational weight gain + Developmental: No alterations in the number of live pups …): 2 mg/kg-day
- LOAEL [1, 7]: 1.1 mg/kg-day
- NOAEL [1, 7]: 0.83 mg/kg-day
- LOAEL ([1]; reproduction developmental, duration: 17 days, gavage, F, CD1, Body Weight: 43% maternal weight loss at GD 13): 10 mg/kg-day
- NOAEL ([1]; reproduction developmental, duration: 17 days, gavage, F, CD1, Hepatic: Increases in absolute and relative liver weights in dams on GD 17 and on post-weaning day 28 at ?1 mg/kg/day): 10 mg/kg-day
- NOAEL ([1]; reproduction developmental, duration: 18 days, gavage, F, Body Weight: No alterations in maternal body weight or gestational weight gain + Hepatic: Increase in dam liver weight at ?0.83 mg/kg/day): 2 mg/kg-day
- NOAEL ([1]; short-term, duration: 7 days, gavage, M, Hepatic: Hepatocellular hypertrophy, steatosis, and increased hepatic triglyceride levels): 10 mg/kg-day
- LOAEL ([1]; short-term, duration: 14 days, diet, M/F, CD1, Death: 100% mortality before day 14): 54 mg/kg-day
- NOAEL ([1]; short-term, duration: 14 days, diet, M/F, CD1, Hepatic: 50-70% increase in absolute liver weight at ?0.5 mg/kg/day): 5.3 mg/kg-day
- LOAEL [1, 8]: 5 mg/kg-day
- NOAEL [1, 8]: 1 mg/kg-day
- LOAEL ([1]; short-term, duration: 14 days, gavage, M, BALB/c, Immunotoxicological: Decreases in the percentages of F4/80+ and CD49b+ cells in the spleen / no alteration in the response of splenic …): 1 mg/kg-day
- NOAEL ([1]; subchronic, duration: 90 days, gavage, M, Hepatic: 33% decrease in serum cholesterol): 0.5 mg/kg-day
- LOAEL [1, 9]: 0.5 mg/kg-day
- NOAEL [1, 9]: 0.2 mg/kg-day

Structure (SMILES): O=S(=O)(O)C(F)(F)C(F)(F)C(F)(F)C(F)(F)C(F)(F)C(F)(F)C(F)(F)C(F)(F)F [Perfluorooctanesulfonic acid]
- LOAEL ([1]; acute, duration: 1 days, M, C57BL/6, Death: LD50): 579 mg/kg-day
- LOAEL ([1]; developmental, duration: 1 days, M, NMRI, Developmental: Altered spontaneous behavior (?60, 87.5, or 60% changes in total activity, rearing, and locomotion)): 11.3 mg/kg-day
- LOAEL ([1]; developmental, duration: 17 days, CD1, Developmental: Significant increase in cholesterol levels in fetal livers): 3 mg/kg-day
- LOAEL [1, 10]: 3 mg/kg-day
- NOAEL [1, 10]: 0.1 mg/kg-day
- LOAEL ([1]; developmental, duration: 19 days, F, CD1, Developmental: In PND 63 offspring fed a high fat diet, increased serum glucose levels at ?0.3 mg/kg/day in females (~40%) and 3 mg/kg/day …): 0.3 mg/kg-day
- NOAEL ([1]; developmental, duration: 19 days, F, CD1, ~24% increase in relative liver weight in dams at 3 mg/kg/day + Developmental: Increase in relative liver weight at 3 mg/kg/day in male and …): 3 mg/kg-day
- LOAEL ([1]; reproduction developmental, duration: 6 days, F, CD1, Body Weight: 21% reduction in maternal body weight gain on GDs 14-17): 8 mg/kg-day
- NOAEL ([1]; reproduction developmental, duration: 17 days, CD1, Hepatic: No alteration in maternal hepatic lipid levels): 3 mg/kg-day
- LOAEL ([1]; short-term, duration: 3 weeks, M, BALB/c, Body Weight: ~15% reduction in body weight during the recovery period): 10 mg/kg-day
- LOAEL [1, 11]: 5 mg/kg-day
- NOAEL [1, 11]: 2.5 mg/kg-day
- LOAEL ([1]; short-term, duration: 7 days, F, BALB/c, Body Weight: 41% decreased body weight gain + Immunotoxicological: Inhibition of T lymphocyte proliferation in response to sRBC / decreased…): 20 mg/kg-day
- NOAEL ([1]; short-term, duration: 7 days, F, BALB/c, Hepatic: 59% increase in relative liver weight): 20 mg/kg-day
- LOAEL ([1]; short-term, duration: 7 days, M, Immunotoxicological: Impaired response to T-cell mitogens / suppressed response to sRBC): 5 mg/kg-day
- NOAEL ([1]; short-term, duration: 10 days, M, C57BL/6, Hepatic: 41% increase in liver weight, hepatocellular hypertrophy, and decreased serum cholesterol levels): 6 mg/kg-day
- LOAEL [1, 12]: 0.025 mg/kg-day
- NOAEL [1, 12]: 0.005 mg/kg-day
- LOAEL ([1]; short-term, duration: 28 days, M, B6C3F1, Body Weight: 21% reduction in body weight): 0.2 mg/kg-day
- NOAEL ([1]; short-term, duration: 28 days, M, B6C3F1, Immunotoxicological: No alterations in thymic lymphocyte phenotypes, response to sRBC, or IgM antibodies to LPS): 0.2 mg/kg-day
- LOAEL [1, 13]: 2.15 mg/kg-day
- NOAEL [1, 13]: 0.43 mg/kg-day
- LOAEL [1, 14]: 10 mg/kg-day
- NOAEL [1, 14]: 0.5 mg/kg-day
- NOAEL ([1]; subchronic, duration: 6 weeks, M, Hepatic: Decreased plasma triglyceride, total cholesterol, non-HDL cholesterol, and HDL cholesterol levels / increased hepatic triglyceride…): 3 mg/kg-day
- NOAEL ([1]; subchronic, duration: 30 days, M, C57BL/6): 10 mg/kg-day
- LOAEL ([1]; subchronic, duration: 30 days, M, C57BL/6, Body Weight: 31% reduction in body weight (correlated with 68% reduction in feed consumption)): 10 mg/kg-day
- LOAEL ([1]; subchronic, duration: 30 days, M, C57BL/6, Hepatic: Increased liver weight (35%) and serum AST(~12%) and GGT levels (~98%) at ?[…] / increases in ALT (~45%) and ALP (~36%) at ?5 mg/…): 2.5 mg/kg-day
- LOEL (mg ion/kg egg) ([2]; F1: IgM and IgY antibody titer (SRBC) + F1: plasma lysozyme activity + F1: spleen: spleen: relative weight): 0.93
- NOEL (mg ion/kg egg) ([2]; F1: IgM antibody titer (SRBC) + F1: IgY antibody titer (SRBC) + F1: lymph node: normalized bursa mass + F1: PHA skin test (DTH response) + …): 4.6
- NOEL ([3]; short-term, duration: 7 day, Oryzias Melastigma, mRNA level for C8 gene + mRNA level for CAT gene + mRNA level for CCL20 gene + mRNA level for Cd3 gene + mRNA level for GPx gene): 1 mg/L
- LOEL ([3]; short-term, duration: 7 day, Oryzias Melastigma, mRNA level for IL1b gene): 0.25 mg/L
- LOEL ([3]; short-term, duration: 10 day, Medaka, relative IL-1-beta mRNA expression + relative IL-8 mRNA expression + relative TNF-alpha mRNA expression): 1 mg/L
- NOEL ([3]; short-term, duration: 16 day, Thicklip grey mullet, relative apoA1 expression in liver (Day 2) + relative cc3 expression in liver (Day 16) + relative cc3 expression in liver (Day 2) + relative…): 2 ppm
- LOEL ([3]; short-term, duration: 16 day, Thicklip grey mullet, relative apoA1 expression in liver (Day 16) + relative fabp expression in liver (Day 2)): 2 ppm
- LOEL ([3]; short-term, duration: 21 day, Atlantic Salmon, cortisol): 0.1 mg/L
- LOEL ([3]; subchronic, duration: 48 day, Atlantic Salmon, cortisol): 0.1 mg/L
- NOEL ([3]; subchronic, duration: 48 day, Atlantic Salmon, fresh weight + length + thymus: thymus somatic index + thymus: thymus volume): 0.1 mg/L
- LOEL ([3]; subchronic, duration: 56 day, Atlantic Salmon, cortisol): 0.1 mg/L
- NOEL (TAD) ([4]; chronic, duration: 26 weeks, F, lymphocyte count (Day 182) + lymphocyte count (LYMPH) (Day 182) + segmented neutrophil count (Day 182) + segmented neutrophil count (N-SEG…): 115 mg/kg-day
- LOEL (TAD) [4, 15]: 115 mg/kg-day
- NOEL (TAD) [4, 15]: 22.9 mg/kg-day
- NOEL (TAD) ([4]; chronic, duration: 26 weeks, M, lymphocyte count (LYMPH) (Day 182) + segmented neutrophil count (%) (Day 182) + segmented neutrophil count (N-SEG) (Day 182)): 115 mg/kg-day
- NOEL ([4]; F): 2 mg/kg-day
- NOEL ([4]; M): 2 mg/kg-day
- NOEL ([5]; chronic, duration: 14 weeks, diet, F, Crl:CD(SD) BR, non-segmented neutrophils (N-SEG)): 1.56 mg/kg-day
- LOEL [5, 16]: 1.33 mg/kg-day
- NOEL [5, 16]: 0.34 mg/kg-day
- NOEL ([5]; chronic, duration: 104 weeks, diet, F, Crl:CD(SD) BR, blood: basophils + blood: eosinophils + blood: monocytes + blood: white blood cell count (WBC) + spleen: spleen: absolute weight (53 weeks…): 1.56 mg/kg-day
- LOEL ([5]; chronic, duration: 104 weeks, diet, F, Crl:CD(SD) BR, blood: lymphocytes + blood: segmented neutrophils): 0.039 mg/kg-day
- NOEL ([5]; chronic, duration: 104 weeks, diet, F, Crl:CD(SD) BR, spleen: spleen: absolute weight (14 weeks)): 0.39 mg/kg-day
- LOEL ([5]; chronic, duration: 104 weeks, diet, F, Crl:CD(SD) BR, spleen: spleen: absolute weight (14 weeks) + spleen: spleen: relative weight (53 weeks)): 1.56 mg/kg-day
- NOEL ([5]; chronic, duration: 104 weeks, diet, M, Crl:CD(SD) BR, blood: basophils + blood: eosinophils + blood: monocytes + blood: white blood cell count (WBC) + spleen: spleen: absolute weight (14 weeks…): 1.56 mg/kg-day
- LOEL ([5]; chronic, duration: 104 weeks, diet, M, Crl:CD(SD) BR, blood: lymphocytes + blood: segmented neutrophils): 0.039 mg/kg-day
- LOEL ([5]; chronic, duration: 104 weeks, diet, M, Crl:CD(SD) BR, spleen: spleen: absolute weight (53 weeks) + spleen: spleen: relative weight (53 weeks)): 1.56 mg/kg-day
- LOEL [5, 17]: 0.6 mg/kg-day
- NOEL [5, 17]: 0.1 mg/kg-day
- LOEL ([5]; reproduction developmental, gavage, M/F, Sprague-Dawley, generation: F1, F1: IL-1beta mRNA level relative change: hippocampus (PND 0) + F1: TNFalpha mRNA level relative change: hippocampus (PND 0)): 0.1 mg/kg-day
- LOEL [5, 18]: 2 mg/kg-day
- NOEL [5, 18]: 0.6 mg/kg-day
- NOEL ([5]; short-term, duration: 28 days, diet, F, Sprague-Dawley, blood: blood CD3+ cells + blood: blood CD3+CD4+ cells + blood: blood CD3+CD8+ cells + blood: blood CD45RA+ cells + IgG antibody titer (KLH…): 100 ppm
- LOEL [5, 19]: 100 ppm
- NOEL [5, 19]: 50 ppm
- LOEL ([5]; short-term, duration: 28 days, diet, M, Sprague-Dawley, Total serum IgG1 level): 2 ppm
- NOEL ([5]; short-term, duration: 28 days, diet, M, Sprague-Dawley, blood CD3+ cells + blood: blood CD3+ cells + blood: blood CD3+CD4+ cells + blood: blood CD3+CD8+ cells + blood: blood CD45RA+ cells + IgG …): 100 ppm
- LOEL [5, 20]: 100 ppm
- NOEL [5, 20]: 50 ppm
- LOEL [5, 21]: 50 ppm
- NOEL [5, 21]: 20 ppm

Reference: EPA's ToxValDB 9.5
